In ChEMBL document CHEMBL3822421, “Insights into the structure-activity relationship of the anticancer compound ZJ-101, a derivative of marine natural product superstolide A: A critical role played by the conjugated trienyl lactone moiety” (Bioorg Med Chem Lett, 2016):
pIC50: −log10 of the molar value. Values belong to the compound of their own block, whether it stands above or below them.

What was measured:
Assay type in all cases: functional, cell-based
[1] = Antiproliferative activity against human SF295 cells after 48 to 72 hrs by Alamar blue assay; conditions: SF-295
[2] = system: RKO; assay: Antiproliferative activity against human RKO cells after 48 to 72 hrs by Alamar blue assay
[3] = system: MDA-MB-231; assay: Antiproliferative activity against human MDA-MB-231 cells after 48 to 72 hrs by Alamar blue assay
[4] = system: MCF7; assay: Antiproliferative activity against human MCF7 cells after 48 to 72 hrs by Alamar blue assay

Structure (SMILES): CC(=O)N[C@H](C)[C@@H](O)[C@@H](C)[C@@H]1OC(=O)/C=C/C=C(C)\C=C\[C@]2(C)CCC=C[C@@H]2/C=C(C)/C=C/[C@H]1C
pIC50 [1]: 7.20
pIC50 [2]: 6.67
pIC50 [3]: 7.20
pIC50 [4]: 7.44

Structure (SMILES): CC(=O)N[C@H](C)[C@@H](O)[C@@H](C)[C@@H]1OC(=O)/C=C/C=C(C)/C=C/[C@]2(C)CCC=C[C@@H]2/C=C(C)/C=C/[C@H]1C
pIC50 [1]: 6.21
pIC50 [2]: 5.97
pIC50 [3]: 6.42
pIC50 [4]: 6.42

pIC50 [3]: < 5.30
pIC50 [4]: < 5.30
Structure (SMILES): CC(=O)N[C@H](C)[C@@H](O)[C@@H](C)[C@@H]1OC(=O)CC/C=C(C)\C=C\[C@]2(C)CCC=C[C@@H]2/C=C(C)/C=C/[C@H]1C
pIC50 [1]: < 5.30
pIC50 [2]: < 5.30
